Compound | melting point [°C]
COc1ccc(NC(=O)c2c(Cl)cccc2Cl)c2nccc(Cl)c12 | 238 to 242
CC(C)N(CCN1C(=O)C(=O)c2ccccc21)C(C)C | 60 to 61
Clc1ccc(I)c(CBr)c1 | 75 to 79
CC1(C)C(=O)N(c2ccc(C#N)c(C(F)(F)F)c2)C(=O)N1Cc1ccccc1Br | 56 to 58
C[C@H](Cc1ccc2c(c1)cc(C(=O)O)n2Cc1ccccc1)NC[C@H](O)c1cccc(Cl)c1 | 128 to 130
COc1ccccc1C(=O)NCCc1ccc(CC(=O)O)cc1 | 154 to 155
O=C(Oc1ccc(-c2ccc(O)c([N+](=O)[O-])c2)cc1)c1ccccc1 | 163
COc1ccc(C(C)=O)cc1C(C)=CC(=O)O | 194
CS(=O)(=O)c1ccnc(Oc2ccccc2)n1 | 86 to 87
COc1cc2c(cc1OCc1ccccc1)C(C#N)(Sc1ccc(Cl)cc1)C2 (stereo not drawn) | 114 to 115
COc1ccc(-c2ccc(NC(=O)OC(C)(C)C)cc2)cc1 | 142 to 147
COc1cc(C2(O)CCN(C(=O)OC(C)(C)C)CC2)ccc1Nc1ncc2ccc(-c3ccccc3N(C)S(C)(=O)=O)n2n1 | 111 to 112
CN(C)c1ncccc1NC(=NC#N)NC1(c2ccccc2)CCC1 | 204 to 205
COC(=O)c1ccc(NC(=O)c2sc3ccc(OC)cc3c2OC(C)C)cc1O | 158 to 160
CCOC(=O)CNC(=O)[C@H](Cc1ccc(O)cc1)NC(=O)[C@H](CO)NC(=O)[C@H](Cc1c[nH]c2ccccc12)NC(=O)[C@H](Cc1c[nH]cn1)NC(=O)[C@@H]1CCC(=O)N1 | 218 to 220
O=C(O)c1c[nH]c(=S)n1C1Cc2cc(F)cc(F)c2C1 (stereo not drawn) | 230 to 232
O=S1(=O)NCN(C2CC2)c2ccc(O)cc21 | 187 to 189
ON=Cc1sc(Cl)nc1Cl | 160
CC1=CC(=O)CC(C)(C)C1(O)/C=C/C(C)=C\C=O (stereo not drawn) | 111 to 113
O=C(O)CCc1cn(Cc2ccc(OCc3csc(-c4ccccc4)n3)cc2)cc1-c1ccccc1 | 111 to 112
CC12CCC(=O)C=C1CCC1C2C(F)CC2(C)C(O)CCC12 (stereo not drawn) | 161 to 162
CS(=O)(=O)c1ccc(-n2nc(C(F)(F)F)cc2-c2nc3cccc(F)c3s2)cc1 | 186 to 188
Cn1cc(C(=O)NCc2ccc(Cl)cc2)c(=O)c2cc(CN3CCOCC3)cc(C#Cc3ccccn3)c21 | 234 to 236
C=CCSCC(N)C(=O)O (stereo not drawn) | 212 to 213
c1ccc(OCCSCc2nnc(-c3ccc(OCCN4CCSCC4)cc3)o2)cc1 | 60
CC1CC(=O)NN=C1c1ccc(-n2cncn2)nc1 (stereo not drawn) | 256 to 257
CCOC1CC2(C)C(CCC3C4CCC(=O)C4(C)CC(N)C32)CC1O (stereo not drawn) | 144 to 148

Compound | melting point [°C]
O=C1Nc2ccccc2Nc2ccsc21 | 226
CC(C)CCc1c(-c2ccc(S(N)(=O)=O)cc2)cnn(-c2ccc(F)cc2)c1=O | 180 to 183
CS(=O)(=O)CCCC1(C(=O)O)CCC1 | 113 to 116
CS(=O)(=O)NCCNCc1ccccc1 | 71 to 73
N#Cc1cccc(Br)c1CBr | 90 to 93
NS(=O)(=O)c1ccccc1-c1ccccn1 | 186 to 190
CCCNC1=Nc2cccnc2N(CC)c2ncccc21 | 114 to 116
CNC(=O)c1sc(C(C)(C)C)cc1NC(=O)Nc1ccc(F)cc1 | 203 to 204
O=C1C(Br)CCN1c1ccc(OCc2ccccc2)cc1 (racemic) | 125 to 126
O=C(Nc1ccc(C(=O)N2Cc3ccccc3Cc3ccccc32)cc1)c1ccccc1OC(F)(F)F | 232 to 235
COc1ccc(C(=O)OC(=C2C(=O)N(C(N)=O)c3cc(Cl)c(F)cc32)c2cccs2)cc1 | 220 to 221
O=C(N[C@H]1CC[C@H](CCN2CCN(c3nccc4c3OCC4)CC2)CC1)c1ccc(N2CCCCC2)cc1 | 182
COc1cc(N2C(=O)CCC2=O)ccc1OCCCN1CCN(c2ccccc2)CC1 | 166 to 167
N#Cc1ccc(-c2ccc3nncn3n2)cc1 | 272 to 274
COC(=O)C=C1CN=C(c2ccccc2F)c2cc(Cl)ccc2N1 | 158 to 160
Cn1cncc1C(O)(c1ccc(Cl)cc1)c1ccc2c(c1)C(c1cccc(Cl)c1)SCc1nnnn1-2 (stereo not drawn) | 217
CSc1ncc(C(=O)Cc2c(Cl)cncc2Cl)cc1OC(C)C | 124 to 125
CCC1(O)NC(=O)C=C1C (stereo not drawn) | 182 to 186
COC(=O)c1ccc(C(=O)C2C(=O)N(C(N)=O)c3ccc(Cl)cc32)s1 (stereo not drawn) | 219 to 221
O=C(O)c1cc(S)c(Cl)cc1Cl | 254 to 255
O=C(OCC(Cl)(Cl)Cl)ON1C(=O)CCC1=O | 98 to 101
CC(C)=C1C(=O)N(c2cccc3c(N)cccc23)C(=O)/C1=C(\C)c1cc(-c2ccccc2)sc1C | 155 to 158
CC(C)C/C(=C/CCNC(=O)OCc1ccccc1)C(=O)O | 70 to 71
CCc1nc2c(c(C)c(C)n3nnnc23)n1CCOCCNS(C)(=O)=O | 216 to 218
O=C(O)[C@H]1Cc2ccccc2CN1S(=O)(=O)c1ccc(-c2ccccc2)cc1 | 195 to 202
CC(c1cc(Br)c(O)c(Br)c1)(c1cc(Br)c(O)c(Br)c1)c1cc(Br)c(O)c(Br)c1 | 160
CN(C)S(=O)(=O)c1cccc(-c2ccnc(C(=O)N(O)Cc3ccccc3)c2)c1 | 110 to 115

The remaining lines, values ahead:

melting point [°C] | Compound
220 | Cc1cc(Nc2ccc(F)cc2)nc(Nc2ccc(S(=O)(=O)N(C)C3CCN(Cc4nccs4)CC3)cc2)n1
120 | Cc1nc2ccc3c(c2o1)OC(CO)CO3 (stereo not drawn)
160 | CC(C)C(O)c1ccc2oc3ncccc3c(=O)c2c1 (stereo not drawn)
167 to 168 | C=CCNc1nc(NCC(C)(C)C)nc2ccc([N+](=O)[O-])cc12
52 to 54 | CCOC(=O)c1ccc2c(Br)cccc2c1
180 to 182 | CCOC=Nc1ccc2nnc(-c3ccc([N+](=O)[O-])s3)n2n1
219 to 220 | Cc1nc(Sc2cc(C(=O)O)nc3ccccc23)sc1CC(=O)O
71 to 73 | CN(C(=O)Cl)c1ccc2c(c1)OCO2
134 to 136 | CCN1C(=O)Cc2cc(C(=O)c3ccccc3)ccc21
192 to 194 | CCCc1nc2c(N)nc3ccccc3c2n1OCC(N)=O
252 to 255 | Cn1cc(C2=C(c3c4n(c5ccccc35)CC(O)CC4)C(=O)NC2=O)c2ccccc21 (stereo not drawn)
118 to 119 | Cn1nc(CO)nc1NCCCOc1cccc(CN2CCCCC2)c1
145 to 148 | CCOC(=O)c1c(C)nc(O)nc1O
135 | Cc1ccc(N2CCC(CCOc3ccc(-c4nc(C(C)C)no4)cc3)CC2)nn1
104 to 105 | O=C1CCCN1C1=CC(CF)(CF)Oc2ccc(C(F)(F)C(F)(F)F)cc21
239 | CCc1ccc2c(c1)C(=O)c1ccc(-c3nnn[nH]3)cc1S2(=O)=O
144 to 146 | COc1ccc(-n2nc(Sc3ccccc3C)c(C)c(C#N)c2=O)cc1
148 to 150 | CN(C)CC1CCc2cc(NC(=O)c3ccc(-c4ccc(N)cc4)cc3)ccc2C1 (stereo not drawn)
199 to 200 | Cc1ccc(-c2[nH]c(C3CCCCC3)nc2C(=O)Nc2nccs2)cc1
126 to 127 | Cc1cc(NCCNCC(O)COc2ccccc2)n2ncnc2n1 (stereo not drawn)
50 to 52 | COc1cccc(C(=O)c2ccc(F)cc2F)c1
153 to 155 | OC(CCc1ccoc1)c1cnc2sc3c(n12)CCCCC3 (stereo not drawn)
172 | O[C@@H]1CN=C(c2ccc3ccccc3c2)O[C@H]1c1ccccc1 (racemic)
188 to 189 | COc1cc2ccccc2[nH]c1=O
220 to 221 | O=C1CC(NC(=O)c2cccnc2)CCCN1 (stereo not drawn)

melting point [°C] | Compound
263 to 264 | O=C(Nc1cc(Cl)cc(Cl)c1)Nc1ccc(Br)cc1-c1nnn[nH]1
84 to 86 | O=C(c1cccnc1)N1CCCC(c2ccccc2)=N1
237 to 238 | O=Cc1cn(-c2cccnc2)nc1-c1ccc([N+](=O)[O-])o1
196 to 197 | CCCn1c(=O)c(-c2c(Cl)cccc2Cl)cc2cnc(N)nc21
108 to 109 | Cc1cccc(-n2nc(C)c(C)c2-c2cc3cnccc3s2)n1
111 to 113 | BrCc1noc2cc3ccccc3cc12
102 to 103 | CCOP(=O)(CCc1ccnc(-c2nc(=O)c3ccccc3s2)c1)OCC
136 to 138 | C=CC(c1ccccc1)c1c(C)c(OC(C)=O)c(C)c(C)c1O (stereo not drawn)
212 to 213 | CCC(=O)N(C)c1cccc(-c2ccc3nnc(NC)n3n2)c1
82 to 84 | Cc1nc(-n2cc(CCC3CCCCC3)nn2)sc1C(=O)NCc1ccccc1
70 to 72 | CC(C)c1cn2cccc(C=O)c2n1
191 to 193 | CCCc1nc2ccc(NS(C)(=O)=O)cc2n1Cc1ccccc1Cl
254 to 255 | CN(C)c1ccc2nc(-c3cccc4ccccc34)[nH]c(=O)c2c1
186 to 187 | CSc1ccc(Cn2c(C)c(CC(=O)O)c3cc(OCc4nc5ccccc5s4)ccc32)cc1
193 to 200 | CN1CCC(C2(O)c3ccccc3Oc3ccc(F)cc32)CC1 (stereo not drawn)
126 to 128 | CC(CCOc1c(-c2ccc(S(C)(=O)=O)cc2)cnn(-c2ccc(F)c(F)c2)c1=O)C(F)(F)F (stereo not drawn)
64 to 67 | CCOC(=O)C1(C(=O)Nc2ccc(Br)cc2C)CCCC1
93 to 95 | CCOC(=O)c1c(C)nn(-c2cccc(N)c2)c1C
105 to 108 | O=C1OCCN1N=C1CCOc2ccccc21
113 to 115 | COc1ccc(-c2cc3cc(OC)cc(CC(F)(F)F)c3o2)cc1
172 to 173 | COC(=O)C=Cc1ccc2[nH]c(C)cc2c1
190 | COc1cc(OC)nc(NC(=O)NS(=O)(=O)Nc2c(C)csc2C)n1
94 to 95 | COCCNC(=O)c1cccc(-c2cccc3cc(Cc4ccc(F)cc4F)sc23)c1
257 | CNC(=O)C1CCN(Cc2cnc3cc(NC(=O)c4ccc(-c5ccc(F)cc5)cc4)c(C)cc3c2)CC1
